Measured values as given in US20110105380A1, “Protection of Nano-Scale Particles from Immune Cell Uptake” (THE TRUSTEES OF THE UNIVERSITY OF PENNSYLVANIA, priority 2009, published 2011).
pIC50: −log10 of the molar value. Several values for one entry are separate records, joined by “and”; a condition that tells them apart may be missing. Equal values may be shown once. Marks after values point to notes of the source that are not given here. Each block holds one molecule with its values, some of them ahead of it.

Experiments:
SHP-1 = SHP-1 (Homo sapiens, UniProt P29350); settings: Chen et al., 2006; read-out: reported IC50 for SHP-1; cited from earlier work
Chain of SHP-1 (P29350 whole entry): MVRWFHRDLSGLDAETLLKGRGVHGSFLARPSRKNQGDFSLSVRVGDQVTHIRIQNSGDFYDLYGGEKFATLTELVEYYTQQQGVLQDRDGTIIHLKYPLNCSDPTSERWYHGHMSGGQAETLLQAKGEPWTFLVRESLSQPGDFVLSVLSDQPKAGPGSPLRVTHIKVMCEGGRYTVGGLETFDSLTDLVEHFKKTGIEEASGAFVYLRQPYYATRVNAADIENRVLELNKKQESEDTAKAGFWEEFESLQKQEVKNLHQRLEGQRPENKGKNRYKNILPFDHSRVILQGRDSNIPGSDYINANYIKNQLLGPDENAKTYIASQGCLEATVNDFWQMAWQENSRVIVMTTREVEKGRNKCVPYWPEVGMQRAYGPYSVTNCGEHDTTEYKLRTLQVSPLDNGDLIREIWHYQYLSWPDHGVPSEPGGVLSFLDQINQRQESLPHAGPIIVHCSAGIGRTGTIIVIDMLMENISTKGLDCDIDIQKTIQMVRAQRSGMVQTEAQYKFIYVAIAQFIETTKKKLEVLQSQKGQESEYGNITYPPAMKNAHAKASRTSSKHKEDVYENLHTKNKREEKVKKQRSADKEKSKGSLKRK

THP-1 macrophages [1] = assay: SHP-1 inhibitor effect on phagocytosis of IgG-opsonized particles by THP-1 macrophages; format: cell-based, human
Procedure: FIG. 16, comprising FIG. 16A-16D, illustrates CD47-SIRPα signaling pathway from SHP-1 to myosin. Phagocytosis of IgG-opsonized particles with or without human CD47 of 100 nm particles (FIG. 16A) and 1.1 μm particles (FIG. 16B) were treated with an SHP-1 inhibitor (NSC-87877) at 62.5 nM and its effects were determined by the ratio of ingested particles per THP-1 phagocyte. The number of particles ingested was shown based on 200 phagocytes counted (n≧3, ±SD). The inset depicts the concentration dependence of NSC-87877 effect on particle uptake. Treatment of blebbistatin in THP-1 macrophages during phagocytosis of IgG-opsonized 100 nm particles (FIG. 16C) and 1.1 μm particles (FIG. 16D) depict inhibition of phagocytosis.
For phagocytosis assays with CD47 attached particles at 100 nm to 1.1 μm diameter were IgG-opsonized. THP-1 macrophage, PMA activated were treated with 0-0.5 μM NSC-87877 an SHP-1 Inhibitor (gift from Frank L. Conlon) 5 minutes prior to the addition of IgG-opsonized particles. Phagocytosis assay occurred at 37° C. for 45 minutes and then fixed for 5 minutes with 5% formaldehyde as described for the phagocytosis assay (Fisher Scientific).
To confirm the correlation between CD47 affect on inhibiting phagocytosis of both nano and micro sized particles, blocked SHP-1 should result in nullifying the CD47 signal. In order to specifically block SHP-1, an inhibitor NSC-87877 was used with a reported high specificity to SHP-1 (Chen et al., 2006, Mol. Pharmacol. 70(2):562-70; Langdon et al., 2007, Development 134(22):4119-30). […] The uptake of these particles was measured as the number of particles ingested per phagocyte.

[2] = biological target: human CD47 on human red blood cells (human) (UniProt Q08722); assay: cell-based or functional assay
Chain of human CD47 on human red blood cells (human) (Q08722 other isoform, or with tags, fused parts or gaps limits assumed): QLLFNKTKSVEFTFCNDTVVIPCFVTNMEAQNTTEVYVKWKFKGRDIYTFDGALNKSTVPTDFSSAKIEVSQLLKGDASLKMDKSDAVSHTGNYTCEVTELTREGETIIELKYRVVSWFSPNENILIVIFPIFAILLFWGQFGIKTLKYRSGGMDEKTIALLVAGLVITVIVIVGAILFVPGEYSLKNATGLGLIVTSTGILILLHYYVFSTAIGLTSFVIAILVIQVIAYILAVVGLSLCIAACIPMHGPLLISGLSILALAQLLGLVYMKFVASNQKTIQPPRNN

THP-1 macrophages [3] = assay: Phagocytosis of IgG-opsonized streptavidin beads with or without hCD47 by THP-1 macrophages; format: cell-based, human; settings: for Ki (minimum hCD47 density to inhibit uptake): IgG-opsonized
Procedure: (§1) The extracellular immunoglobulin-like domains of human CD47 (hCD47) was recombinantly expressed with a spacer domain (Brown et al., 1994, Protein Eng. 7:515-21; Brown et al., 1998, J. Exp. Med. 188:2083-90) plus a C-terminal biotinylation site. […] The beads were opsonized by pretreatment with anti-streptavidin to again induce FcR-mediated phagocytosis (for 45 minutes at 37° C.), and non-engulfed beads were detected with a flourescein anti-Fc against the IgG-opsonin. The number of adherent IgG-opsonized beads per phagocyte was independent of hCD47 (not shown).
For phagocytosis assays, macrophages were plated in 4 cm^2, or 2 cm^2 Lab-Tek II Chambered Coverglass (Nalge Nunc International, Naperville, Ill.) at 1.5×10^5/cm^2. Streptavidin polystyrene beads of different radius: 3.5 μm, 1.1 μm, 160 nm (Spherotech) and 100 nm (Ademtech) were added to macrophages at a ratio of 2:1, 20:1, 277:1, and 2206:1 respectively and incubate at 37° C. for 45 min. […] Non-phagocytosed beads were washed with PBS. Cells were fixed with 5% formaldehyde (Fisher Scientific) for 5 minutes, followed by immediate replacement with PBS. For differentiation of non-internalized beads, beads were labeled with a primary antibody, rabbit anti-streptavidin (Sigma) at 1:1000 in PBS for 20 min at 25° C. A second antibody, anti-rabbit R-PE (Sigma) was added at 1:1000 in PBS to the cells and incubated for an additional 20 minutes at 25° C. Cells were then washed with PBS/0.4% BSA and then quantified by light and fluorescent microscopy. At least 200 cells were scored per well and experiments were repeated at least three times.
For stimulated phagocytosis assays, beads with or without CD47 were incubated with rabbit anti-streptavidin as the IgG opsonin. Beads were opsonized at a concentration 1:1000 for 30 min at 25° C. Opsonized beads were washed 2× and resuspended in 50 μl of PBS/0.4% BSA. Phagocytes were washed with PBS and uningested beads were labeled as described above.
For cytoskeletal involvement at the phagocytic synapse, streptavidin beads opsonized with rabbit anti-streptavidin FITC. Opsonized beads of different sizes were added to THP-1 cells, PMA treated and immediately placed at 4° C. for 10 min to synchronize phagocytosis. […] For studies involving blebbistatin (EMD Biosciences), macrophages were treated for 10 min at 4° C. prior to temperature increase to 37° C. or for 45 min and 37° C. Macrophages treated with DMSO were used to verify no solvent effects.
Beads were opsonized at saturating densities of IgG, and over a 20-fold range of CD47 densities, the number of internalized beads per THP-1 was measured. […] The normal level of CD47 density found on human RBC (Subramanian et al., 2006, Blood 107(6):2548-2556) was indicated by the vertical bars and humans with certain Rhnull phenotypes with reduced levels of CD47 (Mouro-Chanteloup et al., 2003, Blood 101 (1):338-344; Arndt et al., 2004, Br. J. Haematol. 125(3):412-4) was indicated by the vertical bars. The minimum number of CD47 inhibition appears to be consistent across a 30-fold particle size range as depicted by the vertical bars.

[4] = tested on: human peripheral blood monocytes; assay: Phagocytosis of hCD47 beads by human peripheral blood monocytes; format: cell-based; settings: FIG. 6D
Procedure: FIG. 6, comprising […], illustrates that human-CD47 is sufficient to inhibit phagocytosis. FIG. 6A depicts streptavidin beads coated with both anti-streptavidin IgG as the opsonin and biotinylated human-CD47. Phagocytosis of beads by THP-1 cells was assessed in DIC and fluorescence with non-ingested beads visible with rabbit anti-streptavidin plus a second, goat anti-rabbit antibody. The scale bars are 10 μm. […] Inset bar graph compares to inhibited phagocytosis of uncoated beads after 10 min pretreatment of THP-1 cells with blebbistatin (50 μM). FIG. 6C depicts inhibition of phagocytosis depends on density of human-CD47 on beads. FIG. 6D depicts a bar graph comparing hCD47 inhibition of phagocytosis in peripheral blood monocytes.
as §1, with “shown). […]” for “shown).”

THP-1 macrophages [5] = assay: Phagocytosis of IgG-opsonized streptavidin beads with or without hCD47 by THP-1 macrophages; format: cell-based, human; settings: particle radius 3.4 μm
[6] = 100 nm particles, NSC-87877 62.5 nM

Molecule: O=S(=O)(O)c1ccc2cc(N=Nc3cc(S(=O)(=O)O)c4cccnc4c3O)ccc2c1 [NSC-87877]
pIC50 (SHP-1): 6.30
particles ingested per phagocyte, beads without hCD47 (THP-1 macrophages [1]; [6]): no statistical difference
particles ingested per phagocyte, hCD47 particles (THP-1 macrophages [1]; [6]): an increase of ingested particles
uptake of 1.1 μm particles coated with hCD47 (THP-1 macrophages [1]; NSC-87877, FIG. 16B): increase in uptake comparable to uncoated IgG-opsonized particles

phagocytosis of IgG-opsonized human RBCs by human phagocytes after CD47 blocking [2]: 2 fold and 3 fold
Molecule: anti-CD47 F(ab')2 generated from monoclonal antibody B6H12

effective Ki of phagocytosis inhibition (THP-1 macrophages [3]; all particle sizes tested, micro to nano-meter beads (100 nm to 3.5 μm)): approximately 20 molecules/μm^2
effective Ki of phagocytosis inhibition (THP-1 macrophages [3]; all particle sizes tested, micro to nano-meter beads (100 nm to 3.5 μm), listed as human CD47): ~20 molecules/μm^2
effective Ki of phagocytosis inhibition (THP-1 macrophages [3]; approximately 2.1 μm beads, FIG. 6C): ≈ 20 molecules/μm^2
Ki at high opsonin (THP-1 macrophages [3]; beads opsonized at saturating densities of IgG): 20 CD47/μm^2
Ki (minimum hCD47 density to inhibit uptake) (THP-1 macrophages [3]; particle radius 1.1 μm): 20* molecules/μm^2
Ki (minimum hCD47 density to inhibit uptake) (THP-1 macrophages [3]; particle radius 100 nm): 19.9 molecules/μm^2
Ki (minimum hCD47 density to inhibit uptake) (THP-1 macrophages [3]; particle radius 160 nm): 13.6 molecules/μm^2
Ki (minimum hCD47 density to inhibit uptake) (THP-1 macrophages [5]): 27.6 molecules/μm^2
Molecule: hCD47: extracellular immunoglobulin-like domains of human CD47 recombinantly expressed with a spacer domain plus C-terminal biotinylation site, attached to streptavidin-coated beads
fraction of normal CD47 densities sufficient to inhibit phagocytosis (THP-1 macrophages [3]; relative to normal human RBC density): 10-20%
phagocytosis of beads bearing high densities of hCD47 [4]: similarly potent reduction in phagocytosis
